Among the data in US9255101B2 (BIOPROJECT, priority 2012, dated 2016) are Ki, IC50 and melting point values, retold here.

Read-outs that look alike come from different tables or passages of the source.

Data set [1] has as its target T1, human H4 receptor (Homo sapiens, UniProt Q9H3N8). As to the kind of experiment: biochemical.
Data set [2] deals with T1, human H4 receptor. The data set is described as follows: biochemical. This is another data set of the same source.
Data set [3] addresses T1, human H4 receptor.
For data set [4], the target named is T1, human H4 receptor. This is another data set of the same source.
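Throughout, for IC50: membranes from SH-SY5Y cells with stable human H4 receptor expression, incubated with GDP 10 µM, radioactivity retained on filters counted by liquid scintillation.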
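Throughout, for Ki: radioligand displacement of a [3H]-labelled ligand from membranes of CHO cells stably expressing human H4 receptor, bound radioactivity counted on filters by liquid scintillation.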

T1 sequence (Q9H3N8 whole entry): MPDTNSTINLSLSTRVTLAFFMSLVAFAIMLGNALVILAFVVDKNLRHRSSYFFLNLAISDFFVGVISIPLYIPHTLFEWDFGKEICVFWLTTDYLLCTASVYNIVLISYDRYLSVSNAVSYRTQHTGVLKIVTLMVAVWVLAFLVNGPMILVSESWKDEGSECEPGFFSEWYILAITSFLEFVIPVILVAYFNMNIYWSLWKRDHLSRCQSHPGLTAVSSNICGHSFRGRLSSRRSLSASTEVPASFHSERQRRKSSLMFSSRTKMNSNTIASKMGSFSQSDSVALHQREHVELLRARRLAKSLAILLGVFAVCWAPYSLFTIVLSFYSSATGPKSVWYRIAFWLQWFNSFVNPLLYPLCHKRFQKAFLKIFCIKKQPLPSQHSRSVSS

On to `COc1cccc(-c2nc3n(c2C)CCc2ccccc2C3OC2CCN(C)CC2)c1` (stereo not shown) [Example 150, 2-(3-methoxyphenyl)-1-methyl-4-(1-methypiperidin-4-yloxy)-9,10-dihydro-4H-3,10a-diaza-benzo[f]azulene], for which the melting point came to 138 °C. Also, the Ki on human H4 receptor [1] is below 30 nM. The same compound registered an IC50 at human H4 receptor [2] below 30 nM.
Turning to `Cc1ccccc1-c1nc2n(c1C)CCc1ccccc1C2OC1CCN(C)CC1` (stereo not shown) [Example 147, 1-methyl-4-(1-methylpiperidin-4-yloxy)-2-o-tolyl-9,10-dihydro-4H-3,10a-diaza-benzo[f]azulene], the melting point is 74 °C. This compound showed a Ki at human H4 receptor [1] below 30 nM. On human H4 receptor [2], this compound displayed an IC50 below 30 nM.
As for `CN1CCC(OC2c3ccccc3CCn3c2nc(-c2ccc(Br)cc2)c3Cl)CC1` (stereo not shown) [Example 127, 2-(4-bromophenyl)-1-chloro-4-(1-methylpiperidin-4-yloxy)-9,10-dihydro-4H-3,10a-diaza-benzo[f]azulene], the melting point was found to be 169 °C. This compound also yielded a Ki on human H4 receptor [1] below 30 nM. Also, the IC50 at human H4 receptor [2] is below 30 nM.
Turning to `CN1CCC(OC2c3ccccc3CCn3cc(-c4ccccc4)nc32)CC1` (stereo not shown) [Example 4, 4-(1-methylpiperidin-4-yloxy)-2-phenyl-9,10-dihydro-4H-3,10a-diaza-benzo[f]azulene], the melting point was determined as 113 °C. On human H4 receptor [1], this compound had a Ki below 300 nM. The IC50 on human H4 receptor [2] was below 300 nM.
Turning to `COc1ccc(-c2nc3n(c2C)CCc2ccccc2C3OC2CCN(C)CC2)cc1` (stereo not shown) [Example 156, 2-(4-methoxyphenyl)-1-methyl-4-(1-methylpiperidin-4-yloxy)-9,10-dihydro-4H-3,10a-diaza-benzo[f]azulene], the melting point came out at 164 °C. The compound further registered a Ki at human H4 receptor [1] below 30 nM. For the same compound, the IC50 against human H4 receptor [2] is below 30 nM.
As for `Cc1ccc(-c2nc3n(c2C)CCc2ccccc2C3OC2CCN(C)CC2)cc1` (stereo not shown) [Example 153, 1-methyl-4-(1-methylpiperidin-4-yloxy)-2-p-tolyl-9,10-dihydro-4H-3,10a-diaza-benzo[f]azulene], the melting point stood at 181 °C. Moreover, on human H4 receptor [1], the Ki is below 30 nM. On human H4 receptor [2], this compound returned a 50% inhibitory concentration (IC50) below 30 nM.
In turn, `Cc1c(-c2ccccc2F)nc2n1CCc1ccccc1C2OC1CCN(C)CC1` (stereo not shown) [Example 142, 2-(2-fluorophenyl)-1-methyl-4-(1-methylpiperidin-4-yloxy)-9,10-dihydro-4H-3,10a-diaza-benzo[f]azulene] returned a melting point of 68 °C. On human H4 receptor [1], this compound came in with a Ki below 300 nM. Also, the IC50 at human H4 receptor [2] is below 30 nM.
The corresponding values for `Cc1c(-c2cccc(F)c2)nc2n1CCc1ccccc1C2OC1CCN(C)CC1` (stereo not shown) [Example 143, 2-(3-fluorophenyl)-1-methyl-4-(1-methylpiperidin-4-yloxy)-9,10-dihydro-4H-3,10a-diaza-benzo[f]azulene] are 132 °C, below 30 nM and below 30 nM.
The corresponding values for `CN1CCC(OC2c3ccccc3CCn3c2nc(-c2ccccc2)c3CO)CC1` (stereo not shown) [Example 257, [4-(1-methylpiperidin-4-yloxy)-2-phenyl-9,10-dihydro-4H-3,10a-diaza-benzo[f]azulen-1-yl]-methanol] are 120 °C, below 300 nM and below 300 nM.
`Cc1c(-c2ccccc2Cl)nc2n1CCc1ccccc1C2OC1CCN(C)CC1` (stereo not shown) [Example 146, 2-(2-chlorophenyl)-1-methyl-4-(1-methylpiperidin-4-yloxy)-9,10-dihydro-4H-3,10a-diaza-benzo[f]azulene] yielded a melting point of 78 °C. Also, the Ki on human H4 receptor [1] is below 30 nM. On human H4 receptor [2], this compound showed an IC50 below 30 nM.
`CN1CCC(OC2c3ccccc3CCn3cc(C#Cc4cccnc4)nc32)CC1` (stereo not shown) [Example 63, 4-(1-methylpiperidin-4-yloxy)-2-pyridin-3-ylethynyl-9,10-dihydro-4H-3,10a-diaza-benzo[f]azulene] yielded a Ki on human H4 receptor [3] below 1000 nM.
In the case of “4-(1-methylpiperidin-4-yloxy)-2-phenylethynyl-9,10-dihydro-4H-3,10a-diaza-benzo[f]azulene [Example 34]”, the IC50 on human H4 receptor [4] is below 300 nM. The same compound had a Ki on human H4 receptor [3] below 300 nM.
Compound `Cc1cccc(-c2nc3n(c2C)CCc2ccccc2C3OC2CCN(C)CC2)c1` (stereo not shown) [Example 144, 1-methyl-4-(1-methylpiperidin-4-yloxy)-2-m-tolyl-9,10-dihydro-4H-3,10a-diaza-benzo[f]azulene] registered a melting point of 66 °C. The same compound displayed a Ki on human H4 receptor [1] below 30 nM. On human H4 receptor [2], this compound gave an IC50 below 30 nM.
Regarding `Cc1c(-c2ccc(C=CC(=O)OC(C)(C)C)cc2)nc2n1CCc1ccccc1C2OC1CCN(C)CC1` (stereo not shown) [Example 151, 3-{4-[1-methyl-4-(1-methylpiperidin-4-yloxy)-9,10-dihydro-4H-3,10a-diaza-benzo[f]azulen-2-yl]-phenyl}-acrylic acid tert-butyl ester], the melting point came out at 185 °C. At human H4 receptor [1], this compound had a Ki below 30 nM. This compound came in with an IC50 at human H4 receptor [2] below 30 nM.
The compound `Cc1c(-c2cccc(Cl)c2)nc2n1CCc1ccccc1C2OC1CCN(C)CC1` (stereo not shown) [Example 145, 2-(3-chlorophenyl)-1-methyl-4-(1-methylpiperidin-4-yloxy)-9,10-dihydro-4H-3,10a-diaza-benzo[f]azulene] had a melting point of 72 °C. For the same compound, the Ki at human H4 receptor [1] is below 30 nM. On human H4 receptor [2], this compound came in with an IC50 below 30 nM.
As for `Cc1c(-c2ccc(NS(=O)(=O)C3CC3)cc2)nc2n1CCc1ccccc1C2OC1CCN(C)CC1` (stereo not shown) [Example 187, 4-[1-methyl-4-(1-methylpiperidin-4-yloxy)-9,10-dihydro-4H-3,10a-diaza-benzo[f]azulen-2-yl]-phenyl-cyclopropanesulfonamide], on human H4 receptor [4], the IC50 was below 300 nM. On human H4 receptor [3], this compound gave a Ki below 300 nM.
Regarding `Cc1ccc(-c2cn3c(n2)C(OC2CCN(C)CC2)c2ccccc2CC3)s1` (stereo not shown) [Example 96, 4-(1-methylpiperidin-4-yloxy)-2-(5-methylthiophen-2-yl)-9,10-dihydro-4H-3,10a-diaza-benzo[f]azulene], the IC50 at human H4 receptor [4] is below 300 nM. The Ki at human H4 receptor [3] was below 300 nM.
The compound `Cc1c(-c2ccc(Cl)cc2)nc2n1CCc1ccccc1C2OC1CCN(C)CC1` (stereo not shown) [Example 155, 2-(4-chlorophenyl)-1-methyl-4-(1-methylpiperidin-4-yloxy)-9,10-dihydro-4H-3,10a-diaza-benzo[f]azulene] displayed a melting point of 158 °C. This compound returned a Ki at human H4 receptor [1] below 30 nM.
The like results for `CN1CCC(OC2c3ccccc3CCn3c2nc(-c2ccc(C(=O)OC(C)(C)C)cc2)c3C#N)CC1` (stereo not shown) [Example 224, 4-[1-cyano-4-(1-methylpiperidin-4-yloxy)-9,10-dihydro-4H-3,10a-diaza-benzo[f]azulen-2-yl]-benzoic acid tert-butyl ester] were, in that order, 95 °C and below 30 nM.
The corresponding values for `Cc1c(-c2ccsc2)nc2n1CCc1ccccc1C2OC1CCN(C)CC1` (stereo not shown) [Example 148, 1-methyl-4-(1-methylpiperidin-4-yloxy)-2-thiophen-3-yl-9,10-dihydro-4H-3,10a-diaza-benzo[f]azulene] are 74 °C and below 30 nM.
The corresponding values for `Cc1ccccc1-c1cccc2c1CCn1cc(-c3ccccc3)nc1C2OC1CCN(C)CC1` (stereo not shown) [Example 239, 4-(1-methylpiperidin-4-yloxy)-2-phenyl-8-o-tolyl-9,10-dihydro-4H-3,10a-diaza-benzo[f]azulene] are 94 °C and below 1000 nM.
For the compound `CN1CCC(OC2c3ccccc3CCn3cc(I)nc32)CC1` (stereo not shown) [Example 2, 2-iodo-4-(1-methylpiperidin-4-yloxy)-9,10-dihydro-4H-3,10a-diaza-benzo[f]azulene], the melting point was 126 °C. The inhibition constant Ki on human H4 receptor [1] was below 300 nM.
The like results for `COc1cccc2c1CCn1cc(-c3ccccc3)nc1C2OC1CCN(C)CC1` (stereo not shown) [Example 245, 8-methoxy-4-(1-methylpiperidin-4-yloxy)-2-phenyl-9,10-dihydro-4H-3,10a-diaza-benzo[f]azulene] were, in that order, 73 °C and below 1000 nM.
With `CN1CCC(OC2c3ccccc3CCn3cc(-c4ccc(Br)cc4)nc32)CC1` (stereo not shown) [Example 81, 2-(4-bromophenyl)-4-(1-methylpiperidin-4-yloxy)-9,10-dihydro-4H-3,10a-diaza-benzo[f]azulene], the melting point is 142 °C. At human H4 receptor [1], the Ki is below 30 nM. Moreover, the IC50 against human H4 receptor [2] is below 30 nM.
